Among the data in the Bradley open melting point set (2014) are melting point values, retold here.

Molecules are shown by their SMILES.

For the molecule `Nc1c(Br)cc(Br)cc1[N+](=O)[O-]` [2,4-dibromo-6-nitroaniline], the melting point stood at 130 °C. With `O=C1C=C/C(=O)N(N1)C` [N-methylmaleic hydrazide] the figure was 218 °C; with `OC1CCCC1` [Cyclopentanol], -19 °C. With `O=Cc1cccc([N+](=O)[O-])c1` [m-nitrobenzaldehyde] the figure was 59 °C; with `ICCCCI` [1,4-diiodobutane], 6 °C. With `O=C(O)COc1ccccc1[N+](=O)[O-]` [2-nitrophenoxyacetic acid] the figure was 158 °C; with `CCOC(=O)Nc1ccc2c(c1)N(C(=O)CCN1CCOCC1)c1ccccc1S2` [Moricizine], 156 °C. `O=C(O)c1ccccc1Nc1cccc(C(F)(F)F)c1` [Flufenamic Acid] gave a melting point of 134 °C. The molecule `Nc1ccc(S(=O)(=O)c2ccc(N)cc2)cc1` [dapsone] showed a melting point of 176 °C. The same measure for `Oc1ccc(O)cc1` [hydroquinone]: 175 °C. Consider `COC(=O)c1ccccc1` [methyl benzoate], for which the melting point was -12 °C.

The molecule `COc1cc(C=O)cc(Cl)c1O` [5-chlorovanillin] gave a melting point of 164 °C. With `c1ccc2c(c1)CCO2` [2,3-dihydrobenzo[b]furan] the figure was -21 °C; with `CC(Cl)CCl` (stereo unspecified) [1,2-dichloropropane], -100 °C.

For the molecule `C=CCC(C)C` [4-methyl-1-pentene], the melting point is -153 °C. In turn, `C[C@]12C[C@H](O)[C@H]3[C@@H](CCC4=CC(=O)CC[C@@]43C)[C@@H]1CC[C@@H]2C(=O)CO` [corticosterone] had a melting point of 145 °C. With `CCCC(=O)CCC` [4-heptanone] the figure was -33 °C. With `O=[N+]([O-])c1ccccc1C#Cc1ccccn1` [2-[(2-nitrophenyl)ethynyl]pyridine] the figure was 55 °C; with `OCCOc1ccccc1` [2-phenoxyethanol], 13 °C. With `Clc1ccc(Cl)c(Cl)c1` [1,2,4-trichlorobenzene], the melting point came out at 17 °C. The molecule `OB(O)c1ccc(Cl)nc1` [6-chloropyridine-3-boronic acid] yielded a melting point of 156 °C.

Molecule `CC(C)(C)C1=CC(=O)C=C(C(C)(C)C)C1=O` [2,6-di-tert-butyl-p-benzoquinone] had a melting point of 67 °C.

The molecule `CCCCC(=O)O` [pentanoic acid] had a melting point of -34 °C. With `CCOC(=O)/C=C/C(=O)OCC` [diethyl_fumarate] the figure was 2 °C; with `c1ccc(Cn2ccnc2)cc1` [1-benzylimidazole], 71 °C; with `Clc1cc(Cl)c(I)c(Cl)c1` [1,3,5-trichloro-2-iodobenzene], 55 °C. `O=S(c1ccccc1)c1ccccc1` [diphenyl sulfoxide] returned a melting point of 71 °C. The same measure for `SCCCS` [1,3-propanedithiol]: -79 °C; for `O=C(O)c1ccc2c(c1)no[n+]2[O-]` [benzofuroxan-5-carboxylic acid]: 128 °C. With `CN1[C@@H]2CC[C@H]1C[C@@H](O)C2` [tropine] the figure was 63 °C; with `COC` [Dimethyl ether], -138 °C; with `O=C(O)CNc1ccccc1` [N-phenylglycine], 118 °C.

With `COC(=O)C1Cc2ccccc2C(=O)O1` (stereo unspecified) [methyl 1-oxo-3,4-dihydro-1H-isochromene-3-carboxylate], the melting point came out at 90 °C.

`CCOC(C)=O` [ethyl acetate] showed a melting point of -84 °C. With `Nc1c(F)cc(Br)cc1F` [4-bromo-2,6-difluoroaniline] the figure was 64 °C. With `Oc1cccc(C2CNCCN2)c1` (stereo unspecified) [3-(2-piperazinyl)phenol] the figure was 184 °C; with `Cc1ccnc2ccccc12` [lepidine], 10 °C; with `CCCCCCCCCCCc1ccccc1` [Undecylbenzene], -5 °C. With `O=C1OC(=O)C23Cc4ccccc4CC12Cc1ccccc1C3` (stereo unspecified) the figure was 269 °C; with `Cc1ccnc(NS(=O)(=O)c2ccc(N)cc2)n1` [sulfamerazine (polymorph 1)], 235 °C. For the molecule `O=C1CCC2C3CCC(=O)C3C12` (stereo unspecified) [octahydrocyclobuta[1,2-a:3,4-a']dicyclopentene-1,6-dione], the melting point stood at 67 °C. With `C/C(CCc1oc2ccc(Cl)cc2c1-c1ccc(C)o1)=N\O` the figure was 115 °C; with `O=[N+]([O-])c1cccc(Cl)c1` [1-Chloro-3-nitrobenzene], 45 °C; with `Fc1ccc(-c2ccc(F)cc2)cc1` [4,4'-difluorobiphenyl], 88 °C. With `BrC(c1ccccc1)(c1ccccc1)c1ccccc1` [bromotriphenylmethane] the figure was 154 °C; with `Nc1ccc([N+](=O)[O-])cc1[N+](=O)[O-]` [2,4-dinitroaniline], 177 °C. The same measure for `O=[N+]([O-])c1cccc(CO)c1` [3-nitrobenzyl_alcohol]: 32 °C; for `O=c1c2ccccc2sc2ccccc12` [Thiaxanthone]: 210 °C; for `O=C(O)c1ccc([N+](=O)[O-])cc1` [4-nitrobenzoic acid]: 240 °C. Regarding `N#CC(c1ccccc1)N1CCOCC1` (stereo not drawn) [alpha-(4-morpholinyl)phenylacetonitrile], the melting point came out at 69 °C. In turn, `COC(=O)c1ccccc1N` [Methyl 2-aminobenzoate] had a melting point of 24 °C. `Cc1cncc(C(=O)O)c1` [5-methylnicotinic acid]: the melting point turned out to be 213 °C. The same measure for `CCOC(=O)Cc1ccc(O)cc1` [ethyl 4-hydroxyphenylacetate]: 37 °C. Molecule `Cc1cc2nc3c(=O)[nH]c(=O)nc-3n(C[C@H](O)[C@H](O)[C@H](O)CO)c2cc1C` [Riboflavin] yielded a melting point of 280 °C. `CCCOC(=O)c1ccc(O)cc1` [N-propyl 4-hydroxybenzoate]: the melting point was found to be 97 °C. The same measure for `CC(=O)c1ccc(Cl)cc1Cl` [2,4-dichloroacetophenone]: 34 °C; for `O=[N+]([O-])c1ccc(I)cc1` [1-iodo-4-nitrobenzene]: 175 °C. With `Cc1cc(B(O)O)ccc1Cl` [4-chloro-3-methylbenzeneboronic acid] the figure was 240 °C. The same measure for `CC(C)(C)OOC(=O)c1ccccc1` [tert-Butyl benzenecarboperoxoate]: 8 °C; for `COc1ccc(Br)cc1` [4-bromoanisole]: 11 °C; for `O=C(Cl)c1ccc([N+](=O)[O-])cc1` [4-Nitrobenzoyl chloride]: 75 °C. Molecule `COc1ccc(N/N=C2/C(=O)N(CO)N=C2C(F)(F)F)cc1` registered a melting point of 143 °C. The same measure for `O=C(O)CCCCCCCCC(=O)O` [Sebacic acid]: 134 °C; for `N#CCS(=O)(=O)c1ccc(C(F)(F)F)cc1` [[4-(trifluoromethyl)phenylsulfonyl]acetonitrile]: 144 °C. With `O=C1CCC1` [cyclobutanone] the figure was -51 °C; with `CC(C)(C)OC(=O)N1CCc2ccccc21` [1-boc-indoline], 47 °C.

One may read the melting point as the temperature of the solid-liquid transition.
